Paper PMC7491426 (Frontiers in Chemistry, 2020)
Where “and” joins values, the source holds several entries; their conditions need not be identical. Identical values can stand only once. Like-named read-outs stand apart in the source and are kept apart here.

Tests used:
[1] = Spontaneous hydrolysis (chemical stability) in aqueous phosphate buffer; type: physicochemical; conditions: for t1/2 for the spontaneous hydrolysis: 0.05 M phosphate buffer; for t1/2 for the spontaneous hydrolysis / half-life: pH 7.3, 25°C; for half-life: phosphate buffer, pH 7.3, 0.05 M phosphate buffer, read-out: t1/2 for the spontaneous hydrolysis (converted)
Experimental: Spontaneous hydrolysis of selected derivatives was evaluated at 25°C in 0.05 M phosphate buffer, pH 7.3. Kinetics of compound hydrolysis was monitored by measuring changes in absorbance spectra over time using a SpectraMax ABS Plus microplate spectrophotometer (Molecular Devices, Sunnyvale, CA). Absorbance (At) at the characteristic absorption maxima of each compound was monitored over time until no further absorbance decreases occurred (A∞). Using these measurements, we created semilogarithmic plots of log(At-A∞) vs. time, and k′ values were determined from the slopes of these plots. Half-conversion times were calculated using t1/2 = 0.693/k′.
Spontaneous hydrolysis rates of the inhibitors were measured in phosphate buffer at pH 7.3 and 25°C.

[2] = molecular target: T1, HNE (human neutrophil elastase) (Homo sapiens, UniProt P08246); test: Persistence of HNE inhibition over extended period of time (16 h); type: biochemical; conditions: monitored during 16 h in the presence of 10 μM inhibitor
T1 construct: purchased Calbiochem
T1 sequence (P08246 30-267): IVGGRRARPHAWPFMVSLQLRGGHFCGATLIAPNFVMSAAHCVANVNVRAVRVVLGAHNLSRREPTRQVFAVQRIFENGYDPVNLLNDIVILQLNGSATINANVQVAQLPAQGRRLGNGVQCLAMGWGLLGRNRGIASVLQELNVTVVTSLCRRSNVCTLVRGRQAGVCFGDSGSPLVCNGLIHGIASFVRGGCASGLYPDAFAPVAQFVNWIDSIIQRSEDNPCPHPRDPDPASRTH
Source text: The relatively high enzymatic stability of HNE allowed us to evaluate reversibility of the enzyme inhibition over time.

[3] = molecular target: T1, HNE (human neutrophil elastase); test: HNE inhibition assay (fluorogenic substrate cleavage); type: biochemical
Experimental: Compounds were dissolved in 100% DMSO at 5 mM stock concentrations. […] HNE inhibition assays were performed in black flat-bottom 96-well microtiter plates. Briefly, a solution containing 200 mM Tris–HCl, pH 7.5, 0.01% bovine serum albumin, 0.05% Tween®-20, and 20 mU/mL of HNE (Calbiochem) was added to wells containing different concentrations of each compound. The reaction was initiated by addition of 25 μM elastase substrate (N-methylsuccinyl-Ala-Ala-Pro-Val-7-amino-4-methylcoumarin, Calbiochem) in a final reaction volume of 100 μL/well. Kinetic measurements were obtained every 30 s for 10 min at 25°C using a Fluoroskan Ascent FL fluorescence microplate reader (Thermo Electron, MA) with excitation and emission wavelengths of 355 and 460 nm, respectively. For all compounds tested, the concentration of inhibitor that caused 50% inhibition of the enzymatic reaction (IC50) was calculated by plotting % inhibition vs. logarithm of inhibitor concentration (at least six points).

[4] = mean ± SD of three independent experiments, read-out: IC50 (HNE inhibitory activity)
[5] = restated in Table 5 beside docking geometry, read-out: IC50

Row | t1/2 for the spontaneous hydrolysis [1] [h] | half-life [1] [h] | Remaining HNE activity [2] [%] | IC50 [3, 4] | IC50 [3, 5] [nM] | melting point [°C] | Compound | Chemical stability in aqueous buffer ([1]; data not shown)
1 | 9.6 | > 9 | 5.5 ± 1.8 | < 100 nM and 30 nM | 30 | 118 to 121 | CCOC(=O)c1cn(S(=O)(=O)c2ccc(OC(=O)C(C)(C)C)cc2)c2ccccc12 [Compound 3a, Ethyl 1-{[4-(pivaloyloxy)phenyl]sulfonyl}-1H-indole-3-carboxylate] | –
2 | 14.4 | > 9 | 2.0 ± 0.4 | < 100 nM and 49 nM | – | 133 to 136 | CC(C)(C)C(=O)Oc1ccc(S(=O)(=O)n2cc(C#N)c3ccccc32)cc1 [Compound 3c, 4-[(3-Cyano-1H-indol-1-yl)sulfonyl]phenyl pivalate] | –
3 | – | 6.1 | 4.3 ± 0.3 | 76 ± 11 nM | – | 155 to 158 | CC(C)(C)C(=O)Oc1ccc(S(=O)(=O)n2nc(C#N)c3ccccc32)cc1 [Compound 3d, 4-[(3-Cyano-1H-indazol-1-yl)sulfonyl]phenyl pivalate] | –
4 | – | 1.8 | 2.6 ± 0.5 | 55 ± 12 nM | – | 176 to 179 | CC(C)(C)C(=O)Oc1ccc(S(=O)(=O)n2cc(C#N)c3cccnc32)cc1 [Compound 3i, 4-[(3-Cyano-1H-pyrrolo[2,3-b]pyridin-1-yl]sulfonyl)phenyl pivalate] | –
5 | – | 2.5 | 26.2 ± 3.4 | 43 ± 14 nM | – | 164 to 167 | Cc1noc(-c2cn(S(=O)(=O)c3ccc(OC(=O)C(C)(C)C)cc3)c3ncccc23)n1 [Compound 3j, 4-{[3-(3-Methyl-1,2,4-oxadiazol-5-yl)-1H-pyrrolo[2,3-b]pyridin-1-yl]sulfonyl}phenyl pivalate] | –
6 | – | 1.3 | – | 135 ± 37 nM | – | 135 to 138 | CC(C)(C)C(=O)Oc1ccc(S(=O)(=O)n2nc(C(F)(F)F)c3cccnc32)cc1 [Compound 3k, 4-{[3-(Trifluoromethyl)-1H-pyrazolo[3,4-b]pyridin-1-yl]sulfonyl}phenyl pivalate] | –
7 | – | 3.5 | 4.5 ± 1.7 | 66 ± 9 nM | – | 166 to 169 | CC(C)(C)C(=O)Oc1ccc(S(=O)(=O)n2nc(C#N)c3cccnc32)cc1 [Compound 3l, 4-[(3-Cyano-1H-pyrazolo[3,4-b]pyridin-1-yl)sulfonyl]phenyl pivalate] | –
8 | – | 2.1 | 2.2 ± 0.1 | 19 ± 5 nM | – | 116 to 119 | CC(C)(C)C(=O)Oc1ccc(S(=O)(=O)n2ncc(=O)c3ccccc32)cc1 [Compound 9a, 4-[(4-Oxocinnolin-1(4H)-yl)sulfonyl]phenyl pivalate] | –
9 | – | 1.9 | 9.2 ± 2.5 | 78 ± 18 nM | – | 121 to 123 | CC(C)(C)C(=O)Oc1ccc(S(=O)(=O)n2nc(C3CC3)c(=O)c3ccccc32)cc1 [Compound 9b, 4-[(3-Cyclopropyl-4-oxocinnolin-1(4H)-yl)sulfonyl]phenyl pivalate] | –
10 | – | 5.8 | – | – | – | – | Cc1c(-c2ccccc2)c(=O)on1S(=O)(=O)c1ccc(OC(=O)C(C)(C)C)cc1 [G, reference compound] | excellent chemical stability in aqueous buffer

Continued, compound first:

Row | Compound | t1/2 for the spontaneous hydrolysis [1] [h] | half-life [1] [h] | Remaining HNE activity [2] [%] | IC50 [3, 4] | IC50 [3, 5] [nM] | melting point [°C] | Chemical stability in aqueous buffer ([1]; data not shown)
11 | CCOC(=O)c1cn(S(=O)(=O)c2ccc(OC(=O)C(C)(C)C)cc2)c2ccc([N+](=O)[O-])cc12 [Compound 3b, Ethyl 5-nitro-1-{[4-(pivaloyloxy)pheny]sulfonyl}-1H-indole-3-carboxylate] | – | 6.1 | 20.5 ± 1.7 | 25 ± 8 nM | – | 170 to 173 | –
12 | CC(C)(C)C(=O)Oc1ccc(S(=O)(=O)n2nc(C#N)c3cc([N+](=O)[O-])ccc32)cc1 [Compound 3e, 4-[(3-Cyano-5-nitro-1H-indazol-1-yl)sulfonyl]phenyl pivalate] | – | 0.4 | 41.7 ± 3.2 | 93 ± 27 nM | – | 183 to 186 | –
13 | CCOC(=O)c1nn(S(=O)(=O)c2ccc(OC(=O)C(C)(C)C)cc2)c2ccccc12 [Compound 3f, Ethyl 1-{[4-(pivaloyloxy)phenyl]sulfonyl}-1H-indazole-3-carboxylate] | 10.5 | > 9 | 5.9 ± 1.2 | < 100 nM and 15 nM | – | 132 to 135 | –
14 | CCOC(=O)c1nn(S(=O)(=O)c2ccc(OC(=O)C(C)(C)C)cc2)c2ccc([N+](=O)[O-])cc12 [Compound 3g, Ethyl 5-nitro-1-{[4-(pivaloyloxy)phenyl]sulfonyl}-1H-indazole-3-carboxylate] | – | 1.8 | 20.1 ± 1.6 | 23 ± 10 nM | – | 185 to 188 | –
15 | Cc1cccc(C(=O)Nc2nn(S(=O)(=O)c3ccc(OC(=O)C(C)(C)C)cc3)c3ccccc23)c1 [Compound 4, 4-{[3-(3-Methylbenzamido)-1H-indazol-1-yl]sulfonyl}phenyl pivalate] | – | 6.4 | 8.6 ± 1.7 | 62 ± 12 nM | – | – | –
16 | CCOC(=O)c1cn(C)c2ccc(NS(=O)(=O)c3ccc(OC(=O)C(C)(C)C)cc3)cc12 [Compound 7a, Ethyl 1-methyl-5-{[4-(pivaloyloxy)phenyl]sulfonamido}-1H-indole-3-carboxylate] | – | 6.8 | – | 233 ± 76 nM | – | – | –
17 | CCOC(=O)c1cn(C(=O)c2cccc(C)c2)c2ccc(NS(=O)(=O)c3ccc(OC(=O)C(C)(C)C)cc3)cc12 [Compound 7b, Ethyl 1-(3-methylbenzoyl)-5-{[4-(pivaloyloxy)phenyl]sulfonamido}-1H-indole-3-carboxylate] | – | 5.3 | – | 5200 ± 140 nM | 5200 | 172 to 175 | –
18 | Cn1nc(C#N)c2cc(NS(=O)(=O)c3ccc(OC(=O)C(C)(C)C)cc3)ccc21 [Compound 7c, 4-[N-(3-Cyano-1-methyl-1H-indazol-5-yl)sulfamoyl]phenyl pivalate] | – | 1.5 | – | 394 ± 38 nM | – | 162 to 165 | –
19 | CCOC(=O)c1nn(C)c2ccc(NS(=O)(=O)c3ccc(OC(=O)C(C)(C)C)cc3)cc12 [Compound 7d, Ethyl 1-methyl-5-{[4-(pivaloyloxy)phenyl]sulfonamido}-1H-indazole-3-carboxylate] | 16.5 | > 9 | 9.1 ± 2.5 | < 100 nM and 86 nM | 86 | 130 to 133 | –
20 | CCOC(=O)c1nn(C(=O)c2cccc(C)c2)c2ccc(NS(=O)(=O)c3ccc(OC(=O)C(C)(C)C)cc3)cc12 [Compound 7e, Ethyl 1-(3-methylbenzoyl)-5-{[4-(pivaloyloxy)phenyl]sulfonamido}-1H-indazole-3-carboxylate] | – | 5.8 | – | 460 ± 120 nM | 460 | 180 to 182 | –
21 | CC(C)(C)C(=O)Oc1ccc(S(=O)(=O)n2cc(-c3ccccc3)c(=O)o2)cc1 [Compound 11, 4-[(5-Oxo-4-phenylisoxazol-2(5H)-yl)sulfonyl]phenyl Pivalate] | – | – | – | 290 ± 40 nM | – | 166 to 168 | –
22 | CC(C)(C)C(=O)Oc1ccc(S(=O)(=O)Nc2ccccc2C(=O)NCC(=O)O)cc1 [Sivelestat, reference compound] | – | – | 3.7 ± 0.1 | – | – | – | –
